Read-outs that look alike come from different tables or passages of the source. Marks after values point to notes of the source that are not given here.
Columns and labels:
[1] = Dissolution rate of about 100 mg SAHA API before encapsulation (USP Dissolution Apparatus II, 900 mL 2.0% Tween, 37±0.5° C., 100 rpm, HPLC); format: physicochemical; conditions: for Average SAHA % Dissolved at Time, minutes 0: 0 minutes; for Average SAHA % Dissolved at Time, minutes 10: 10 minutes; for Average SAHA % Dissolved at Time, minutes 15: 15 minutes; for Average SAHA % Dissolved at Time, minutes 20: 20 minutes; for Average SAHA % Dissolved at Time, minutes 30: 30 minutes; for Average SAHA % Dissolved at Time, minutes 45: 45 minutes; for Average SAHA % Dissolved at Time, minutes 60: 60 minutes
Experimental: Dissolution rates or profiles in vitro of “about 100 mg of the active ingredient of the pharmaceutical composition” is measured according to the steps and conditions in Example 15. In one embodiment, it is measured by using a USP Dissolution Apparatus II with a helical sinker (Quality Lab Accessories L.L.C., Manville, N.J.) in 900 mL of 2.0% Tween (TCI America, Portland, Oreg.) at a temperature of 37±0.5° C., and paddles rotated at 100 rpm.
The dissolution rate of 100 mg of SAHA API before encapsulation was evaluated using a USP Dissolution Apparatus II (VK 7000, Varian Inc., Cary, N.C.). About 100 mg of SAHA was delivered to vessels containing 900 mL of 2.0% Tween (TCI America, Portland, Oreg.) at a temperature of 37±0.5° C. The paddles were rotated at 100 rpm and samples were pulled at specified time intervals via an autosampler (VK 8000, Varian Inc., Cary, N.C.) equipped with 35 μm full flow filters (Varian Inc., Cary, N.C.).
Subsequently, samples were assayed for SAHA by High Performance Liquid Chromatography (Agilent 1100 series, Agilent Technologies Inc., Wilmington, Del.). The chromatographic analysis was conducted using a Phenomenex Luna C8 (2) (100×4.6 mm) 5 μm particle size column, a mobile phase of 1:1 methanol/0.1% trifluroacetic acid (Reagent Grade, Fisher), and a detection wavelength of 242 nm.

[2] = Phase I study: safety and tolerability of oral vorinostat 400 mg q.d.; format: in vivo, human; conditions: short-term administration, patients with advanced cancer
Experimental: (§1) This Phase I study conducted in advanced stage cancer patients assessed safety and tolerability of oral vorinostat administered 400 mg q.d., single- and multiple-dose serum pharmacokinetics (PK) of vorinostat, and the effect of a standard high-fat meal on single-dose vorinostat PK. Patients received a single-dose of 400 mg vorinostat on Day 1 (fasted) and Day 5 (after a standard high-fat meal) with 48 hours of postdose PK sampling on both days. Patients then received 400 mg vorinostat once a day on Days 7 through 28 (22 days of dosing). On Day 28, vorinostat was administered after a standard high-fat meal with PK sampling for 24 hrs postdose. Of 23 patients enrolled, 23 were evaluable for Day 1 PK, 20 for Day 5 PK, and 14 for Day 28 PK. The apparent t1/2 of vorinostat was short.

[3] = Solubility of SAHA raw material (physical and chemical properties of raw materials); format: physicochemical; conditions: water
Description: Table 10 summarizes the physical properties of the raw materials in the capsule.

[4] = Phase I study: single- and multiple-dose serum pharmacokinetics of oral vorinostat 400 mg, fasted and after high-fat meal; format: in vivo, human; conditions: for fe (fraction of dose excreted unchanged in urine): arithmetic mean; for Tmax: median; for AUC(0-t): read-out: AUC0-24 hr
Experimental: as §1
Table 22: PK Parameters of Vorinostat Following Single and Multiple Doses of Vorinostat 400 mg Daily

[5] = 400 mg single oral dose, high-fat meal vs fasted
[6] = single dose fed/single dose fasted, 400 mg

In the case of O=C(CCCCCCC(=O)Nc1ccccc1)NO [1007D, suberoylanilide hydroxamic acid], the “Average SAHA % Dissolved at Time, minutes 0” value [1] is reported as 0.0%, the “Average SAHA % Dissolved at Time, minutes 10” value [1] is reported as 37.8% and the “Average SAHA % Dissolved at Time, minutes 15” value [1] is reported as 46.1%. The “Average SAHA % Dissolved at Time, minutes 20” value [1] was 52.1%, the “Average SAHA % Dissolved at Time, minutes 30” value [1] was 61.9% and the “Average SAHA % Dissolved at Time, minutes 45” value [1] was 71.8%. The “Average SAHA % Dissolved at Time, minutes 60” value [1] was 79.3%.
With O=C(CCCCCCC(=O)Nc1ccccc1)NO [1008D, suberoylanilide hydroxamic acid] the “Average SAHA % Dissolved at Time, minutes 0” value [1] was 0.0%, the “Average SAHA % Dissolved at Time, minutes 10” value [1] was 26.8% and the “Average SAHA % Dissolved at Time, minutes 15” value [1] was 34.8%. For the same compound, the “Average SAHA % Dissolved at Time, minutes 20” value [1] was 41.5%, the “Average SAHA % Dissolved at Time, minutes 30” value [1] was 51.3% and the “Average SAHA % Dissolved at Time, minutes 45” value [1] was 61.8%. For the same compound, the “Average SAHA % Dissolved at Time, minutes 60” value [1] was 69.8%.
For O=C(CCCCCCC(=O)Nc1ccccc1)NO [1136-1136-00-001, suberoylanilide hydroxamic acid], the “Average SAHA % Dissolved at Time, minutes 0” value [1] was 0.0%, the “Average SAHA % Dissolved at Time, minutes 10” value [1] was 38.2% and the “Average SAHA % Dissolved at Time, minutes 15” value [1] was 48.9%. The “Average SAHA % Dissolved at Time, minutes 20” value [1] was 57.3%, the “Average SAHA % Dissolved at Time, minutes 30” value [1] was 69.3% and the “Average SAHA % Dissolved at Time, minutes 45” value [1] was 80.6%. The “Average SAHA % Dissolved at Time, minutes 60” value [1] was 87.7%.
In the case of O=C(CCCCCCC(=O)Nc1ccccc1)NO [1376-C-RO-02, suberoylanilide hydroxamic acid], the “Average SAHA % Dissolved at Time, minutes 0” value [1] is reported as 0.0%, the “Average SAHA % Dissolved at Time, minutes 10” value [1] is reported as 31.1% and the “Average SAHA % Dissolved at Time, minutes 15” value [1] is reported as 39.7%. For the same compound, the “Average SAHA % Dissolved at Time, minutes 20” value [1] was 47.1%, the “Average SAHA % Dissolved at Time, minutes 30” value [1] was 58.3% and the “Average SAHA % Dissolved at Time, minutes 45” value [1] was 70.1%. For the same compound, the “Average SAHA % Dissolved at Time, minutes 60” value [1] was 78.3%.
In the case of O=C(CCCCCCC(=O)Nc1ccccc1)NO [vorinostat, N-hydroxy-N′-phenyloctanediamide], the tolerability [2] is reported as “generally well tolerated”, the solubility [3] is reported as under 100 µg/mL and the “Accumulation ratio: AUC0-24 hr multiple dose fed/AUC0-24 hr single dose fed (GMR)” value ([4]; 400 mg daily) is reported as 1.21. For the same compound, the “Linearity ratio: AUC0-24 hr multiple dose fed/AUC0-∞ single dose fed (GMR)” value ([4]; 400 mg daily) was 1.23, the “fe (fraction of dose excreted unchanged in urine)” value ([4]; 400 mg oral, multiple doses (once daily for 22 days), fed, n = 12) was 0.0037 and the t1/2 ([4]; 400 mg oral, multiple doses (once daily for 22 days), fed, harmonic mean) was 1.34 h. For the same compound, the Cmax ([4]; 400 mg oral, multiple doses (once daily for 22 days), fed, serum, geometric mean) was 1130 nM, the “fe (fraction of dose excreted unchanged in urine)” value ([4]; 400 mg oral, single dose, fasted, n = 22) was 0.0021 and the Tmax ([4]; 400 mg oral, single dose, fasted) was 1.50 h. For the same compound, the “AUC0-∞” value ([4]; 400 mg oral, single dose, fed (high-fat meal), serum, geometric mean) was 5.33 µM·h, the “fe (fraction of dose excreted unchanged in urine)” value ([4]; 400 mg oral, single dose, fed, n = 21) was 0.0030 and the AUC0-24 hr ([4]; 400 mg oral, single dose, fed, serum, geometric mean) was 5.33 µM·h. For the same compound, the “extent of absorption, effect of high-fat meal” value [4, 5] was “small increase”, the “rate of absorption, effect of high-fat meal” value [4, 5] was “modest decrease” and the “apparent t1/2” value ([4]; advanced cancer patients, 400 mg oral, serum) was “short”. The “Tmax, effect of high-fat meal” value ([4]; fed state, 400 mg oral) was “delayed”, the “lag time before detectable levels in serum” value ([4]; fed state, most subjects, 400 mg oral) was “at least 15 minutes” and the Tmax ([4]; human, serum, po, 400 mg, 400 mg oral, multiple doses (once daily for 22 days), fed, read-out: Tmax) was 4.21 h. For the same compound, the AUC(0-t) ([4]; human, serum, po, 400 mg, 400 mg oral, multiple doses (once daily for 22 days), fed, serum, geometric mean) was 6.46 µM·h, the Cmax ([4]; human, serum, po, 400 mg, 400 mg oral, single dose, fasted, geometric mean) was 1120 nM and the half-life ([4]; human, serum, po, 400 mg, 400 mg oral, single dose, fasted, harmonic mean) was 1.74 h. The AUC(0-t) ([4]; human, serum, po, 400 mg, 400 mg oral, single dose, fasted, serum, geometric mean) was 3.82 µM·h, the Cmax ([4]; human, serum, po, 400 mg, 400 mg oral, single dose, fed, geometric mean) was 1020 nM and the half-life ([4]; human, serum, po, 400 mg, 400 mg oral, single dose, fed, harmonic mean) was 1.44 h. For the same compound, the Tmax ([4]; human, serum, po, 400 mg, 400 mg oral, single dose, fed, read-out: Tmax) was 4 h, the AUC(0-inf) ([4]; human, 400 mg oral, single dose, fasted, serum, geometric mean) was 3.87 µM·h and the Trough concentrations ([4]; multiple-dose administration, 400 mg once a day, serum) was “generally below the limit of quantification”. The “AUC0-∞ GMR (geometric mean ratio)” value [4, 6] was 1.38^§ and the “Cmax GMR (geometric mean ratio)” value [4, 6] was 0.91^§.
